Data published in patent US6407088B1 (priority 2000, dated 2002).
Values joined by “and” are separate entries in the source; they are usually repeats but may differ in a detail not shown here. Identical values can stand only once. “Also recorded” adds a separate entry of the source. Like-named read-outs stand apart in the source and are kept apart here. Marks after values point to notes of the source that are not given here.

What was measured:
[1] = test system: Rhesus monkeys; conditions: rhesus monkey, in vivo
[2] = test system: rabbits; design: species or system New Zealand white rabbits; conditions: rabbit, in vivo, iv
[3] = test system: Kunming mice; test: Acetic acid-induced writhing test in mice; type: in vivo
[4] = test system: TTX-sensitive sodium channel (TTX-S); conditions: cited from earlier work
[5] = test system: mouse's marrow cells; conditions: in vivo
[6] = target: hPN3 (Homo sapiens, UniProt Q9Y5Y9); conditions: cited from earlier work
hPN3, sequence (Q9Y5Y9 whole entry, looked up): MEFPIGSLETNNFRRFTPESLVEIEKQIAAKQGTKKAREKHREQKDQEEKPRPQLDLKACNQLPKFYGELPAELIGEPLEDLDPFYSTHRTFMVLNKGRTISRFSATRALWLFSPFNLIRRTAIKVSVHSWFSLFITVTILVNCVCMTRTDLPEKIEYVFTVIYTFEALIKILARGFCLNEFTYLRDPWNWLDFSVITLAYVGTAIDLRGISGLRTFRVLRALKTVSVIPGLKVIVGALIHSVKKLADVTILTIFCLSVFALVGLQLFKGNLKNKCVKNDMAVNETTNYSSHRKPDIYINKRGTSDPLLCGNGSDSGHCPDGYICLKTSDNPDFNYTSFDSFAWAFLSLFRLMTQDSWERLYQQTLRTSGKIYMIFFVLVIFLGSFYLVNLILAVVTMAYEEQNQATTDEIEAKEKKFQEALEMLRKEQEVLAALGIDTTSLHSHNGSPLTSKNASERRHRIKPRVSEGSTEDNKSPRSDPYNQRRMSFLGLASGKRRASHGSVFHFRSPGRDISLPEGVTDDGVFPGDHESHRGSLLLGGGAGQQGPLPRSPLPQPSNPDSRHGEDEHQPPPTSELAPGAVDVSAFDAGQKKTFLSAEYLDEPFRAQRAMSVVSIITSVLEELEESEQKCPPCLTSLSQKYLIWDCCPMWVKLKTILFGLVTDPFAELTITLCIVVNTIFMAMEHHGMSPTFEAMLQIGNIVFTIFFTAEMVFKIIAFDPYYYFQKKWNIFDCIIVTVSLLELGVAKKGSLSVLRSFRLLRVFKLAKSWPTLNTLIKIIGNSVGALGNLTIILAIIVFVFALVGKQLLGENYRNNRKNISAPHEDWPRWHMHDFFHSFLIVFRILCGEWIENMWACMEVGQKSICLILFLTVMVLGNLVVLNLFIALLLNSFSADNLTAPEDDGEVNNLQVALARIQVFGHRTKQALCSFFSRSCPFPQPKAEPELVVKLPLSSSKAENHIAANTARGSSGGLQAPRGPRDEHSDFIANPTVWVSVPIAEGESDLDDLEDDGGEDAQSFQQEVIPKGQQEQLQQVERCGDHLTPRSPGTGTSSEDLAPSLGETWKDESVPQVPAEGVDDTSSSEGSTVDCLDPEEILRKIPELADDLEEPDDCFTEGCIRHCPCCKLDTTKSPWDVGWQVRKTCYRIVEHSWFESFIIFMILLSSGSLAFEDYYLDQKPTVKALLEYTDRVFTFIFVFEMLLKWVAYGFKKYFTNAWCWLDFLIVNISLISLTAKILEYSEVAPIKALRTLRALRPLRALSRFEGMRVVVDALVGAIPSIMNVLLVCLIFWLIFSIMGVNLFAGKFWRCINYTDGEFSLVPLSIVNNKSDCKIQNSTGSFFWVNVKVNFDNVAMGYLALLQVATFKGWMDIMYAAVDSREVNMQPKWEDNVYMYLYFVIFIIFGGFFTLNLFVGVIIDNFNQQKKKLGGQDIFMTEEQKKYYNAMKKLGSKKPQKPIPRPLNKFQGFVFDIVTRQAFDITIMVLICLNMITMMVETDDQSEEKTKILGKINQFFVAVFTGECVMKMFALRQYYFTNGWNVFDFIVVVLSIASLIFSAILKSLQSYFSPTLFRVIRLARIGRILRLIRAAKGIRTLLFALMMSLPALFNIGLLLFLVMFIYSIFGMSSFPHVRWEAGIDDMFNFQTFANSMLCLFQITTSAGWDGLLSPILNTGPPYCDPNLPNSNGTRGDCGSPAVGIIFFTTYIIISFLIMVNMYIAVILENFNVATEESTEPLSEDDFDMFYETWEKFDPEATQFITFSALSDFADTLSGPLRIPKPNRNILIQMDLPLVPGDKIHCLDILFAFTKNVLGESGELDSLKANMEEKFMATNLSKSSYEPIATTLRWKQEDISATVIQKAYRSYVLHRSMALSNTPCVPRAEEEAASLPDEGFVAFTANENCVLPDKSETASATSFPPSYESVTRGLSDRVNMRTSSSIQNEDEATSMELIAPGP

[7] = test system: Hartley guinea pigs
[8] = test system: late term cancer patients; conditions: human, in vivo
[9] = test system: rats; conditions: rat, in vivo
[10] = test system: anesthetized dogs; conditions: dog, in vivo
[11] = test system: Shanghai mice; conditions: mouse, in vivo
[12] = test system: monkeys; conditions: rhesus monkey, in vivo
[13] = test system: monkeys; conditions: rhesus monkey, in vivo; remark: listed apart in the source
[14] = test system: mice; conditions: mouse, in vivo
[15] = test system: Kunming mice; conditions: mouse, in vivo
[16] = target: TTX-resistant sodium channel (TTX-R) (Rattus norvegicus, UniProt Q62968); conditions: cited from earlier work
TTX-resistant sodium channel (TTX-R), sequence (Q62968 whole entry, looked up): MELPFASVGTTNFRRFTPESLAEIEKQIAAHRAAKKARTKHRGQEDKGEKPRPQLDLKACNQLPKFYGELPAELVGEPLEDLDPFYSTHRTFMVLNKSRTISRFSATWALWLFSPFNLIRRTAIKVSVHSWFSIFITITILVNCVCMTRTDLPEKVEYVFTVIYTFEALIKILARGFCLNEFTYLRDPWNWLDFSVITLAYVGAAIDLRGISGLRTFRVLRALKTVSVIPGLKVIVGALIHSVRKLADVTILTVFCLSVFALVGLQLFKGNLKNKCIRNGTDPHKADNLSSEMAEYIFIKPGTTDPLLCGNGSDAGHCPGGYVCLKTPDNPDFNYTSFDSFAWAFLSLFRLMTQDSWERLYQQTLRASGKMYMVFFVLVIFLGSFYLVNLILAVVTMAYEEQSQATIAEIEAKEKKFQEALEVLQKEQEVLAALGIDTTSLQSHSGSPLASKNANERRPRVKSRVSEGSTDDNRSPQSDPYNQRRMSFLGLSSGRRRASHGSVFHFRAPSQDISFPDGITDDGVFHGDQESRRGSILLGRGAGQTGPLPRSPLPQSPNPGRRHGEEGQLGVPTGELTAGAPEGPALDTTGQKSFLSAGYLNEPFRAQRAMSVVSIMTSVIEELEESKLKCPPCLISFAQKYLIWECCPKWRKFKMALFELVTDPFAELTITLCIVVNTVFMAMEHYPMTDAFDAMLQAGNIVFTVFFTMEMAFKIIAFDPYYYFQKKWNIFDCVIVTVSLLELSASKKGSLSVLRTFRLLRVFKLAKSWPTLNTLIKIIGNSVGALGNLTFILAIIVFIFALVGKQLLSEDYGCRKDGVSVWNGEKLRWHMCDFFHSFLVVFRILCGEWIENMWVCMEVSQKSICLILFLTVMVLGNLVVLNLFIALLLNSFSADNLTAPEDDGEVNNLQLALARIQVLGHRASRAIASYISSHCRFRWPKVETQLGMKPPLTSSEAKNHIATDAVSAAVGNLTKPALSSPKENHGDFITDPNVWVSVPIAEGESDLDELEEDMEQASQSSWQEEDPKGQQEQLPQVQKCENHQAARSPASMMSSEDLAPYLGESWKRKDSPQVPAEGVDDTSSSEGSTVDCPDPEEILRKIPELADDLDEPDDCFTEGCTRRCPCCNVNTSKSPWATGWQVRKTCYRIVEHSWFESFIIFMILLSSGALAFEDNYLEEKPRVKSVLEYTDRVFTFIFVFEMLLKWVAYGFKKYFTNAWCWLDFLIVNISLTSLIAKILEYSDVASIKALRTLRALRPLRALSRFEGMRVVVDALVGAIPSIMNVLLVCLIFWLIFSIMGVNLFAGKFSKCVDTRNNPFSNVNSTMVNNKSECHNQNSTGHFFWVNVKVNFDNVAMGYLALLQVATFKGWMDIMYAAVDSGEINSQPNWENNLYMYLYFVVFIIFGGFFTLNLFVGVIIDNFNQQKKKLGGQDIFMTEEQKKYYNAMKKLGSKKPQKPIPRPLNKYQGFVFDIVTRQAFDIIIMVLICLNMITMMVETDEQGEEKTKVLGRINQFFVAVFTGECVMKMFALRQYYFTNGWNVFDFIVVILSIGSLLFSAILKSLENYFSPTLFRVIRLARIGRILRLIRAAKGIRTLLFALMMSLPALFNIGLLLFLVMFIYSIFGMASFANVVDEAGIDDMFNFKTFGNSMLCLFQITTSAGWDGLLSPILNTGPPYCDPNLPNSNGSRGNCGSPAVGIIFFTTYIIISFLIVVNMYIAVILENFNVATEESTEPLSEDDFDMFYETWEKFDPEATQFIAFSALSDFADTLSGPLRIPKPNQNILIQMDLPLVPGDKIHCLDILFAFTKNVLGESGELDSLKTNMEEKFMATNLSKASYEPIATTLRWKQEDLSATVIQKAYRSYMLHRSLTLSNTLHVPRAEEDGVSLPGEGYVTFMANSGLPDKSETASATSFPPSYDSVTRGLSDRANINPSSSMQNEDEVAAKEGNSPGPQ

[17] = test system: mice; test: Analgesic time-effect relation in acetic acid-induced writhing test in mice; type: in vivo; conditions: for IR, inhibition rate / AWI, average writhing incidence: aspirin ig
[18] = test system: Wistar rats; test: Formalin induced inflammation test in rats; conditions: rat, in vivo
[19] = test system: 2% red blood cell (RBC) suspension; type: cell-based, rabbit
[20] = test system: Chinese hamster lung (CHL) cells; type: cell-based; conditions: for Chromosomal aberration rate (%): MMC 0.25 μg/mL, no metabolic activation, P<0.01
Description: The Chinese hamster lung (CHL) cells were exposed to tetrodotoxin at the concentrations of 5.0, 10.0, and 20.0 μg/mL for 24 or 48 hours in the absence of Sg activation and for 6 hours in the presence of S9 activation.

[21] = test system: rats; test: Tail-flick test in rats; conditions: rat, in vivo
[22] = test system: Salmonella TA98; conditions: Dexon 50.0, −S9; control 36 ± 5
[23] = test system: Salmonella TA100; conditions: Dexon 50.0, −S9; control 130 ± 11
[24] = test system: Salmonella TA102
[25] = test system: Salmonella TA97; conditions: Dexon 50.0, −S9; control 138 ± 18
[26] = test system: Kunming mice; conditions: mouse, in vivo; remark: listed apart in the source
[27] = test system: Kunming mice; conditions: mouse, in vivo; remark: listed apart in the source
[28] = test system: rabbits' quadriceps femoris muscles
[29] = Aspirin 100 mg/kg, Table 5 (im)
[30] = Aspirin 200 mg/kg, Table 5 (im)
[31] = Aspirin 300 mg/kg, Table 5 (im)
[32] = Aspirin 400 mg/kg, Table 5 (im)
[33] = quadriceps femoris, 1 mL im, 48 hours

With `N=C1NC(O)C2C3OC4(O)OC(C(O)C2(N1)C4O)C3(O)CO` (stereo not shown) [TTX, octahydro-12-(hydroxymethyl)-2-imino-5,9:7,10a-dimethano-10aH-(1,3)dioxocino(6,5-d)-pyrimidine-4,7,10,11,12-pentol] the “decrease of AChE activity” value [1] was 41.2%, the toxic symptoms [1] was “evident toxic symptoms” and the vascular stimulation [2] was “did not produce any pronounced vascular stimulation”. For the same compound, the “analgesic effect, times stronger than meperidine” value ([3]; mouse, in vivo) was 670 times, the IC50 [4] was 1 to 20 nM and the micronucleus rate [5] was 4.3 ‰. For the same compound, the IC50 [6] was 80 µM, the “animals with hypersensitive reaction (+)” value ([7]; guinea pig, in vivo) was 0/8 and the “animals with hypersensitive reaction (++)” value ([7]; guinea pig, in vivo) was 0/8. The “animals with hypersensitive reaction (−)” value ([7]; guinea pig, in vivo) was 8/8, the “Side Effect(s)” value [8] was “Numbness; also recorded: Numbness,; also recorded: nausea, vomit” and the addiction or withdrawal [8] was “No signs of addiction or withdrawal”. For the same compound, the blood pressure decrease [8] was 10-15 mm Hg, the “duration of analgesic effect / total pain relief” value [8] was 20 to 30 days and the “duration of numbness or tingling” value [8] was “at most 30 min”. For the same compound, the “onset of numbness or tingling in lips, tongue tip, fingers and toes” value [8] was 10 to 20 min, the “pain at the conclusion of treatment” value [8] was “entirely eliminated” and the “pain intensity of all subjects” value [8] was “reduced to 0 in all but one patient who recorded a 1”. The “quality of life interference” value [8] was 0, the “quality of life score” value [8] was 6 and the “time to noticeable pain relief, some subjects” value [8] was 5 min. For the same compound, the “time to pain relief (various degrees), all subjects” value [8] was at most 30 min, the “time to recovery of blood pressure” value [8] was 40 to 50 min and the “time to take effect” value [8] was 5 to 30 min. The “Score of body weight loss (Mean ± SD)” value [9] was 0.00 ± 0.00, the “Score of withdrawal symptoms (Mean ± SD)” value ([9]; sc) was 0.30 ± 0.90 and 0.20 ± 0.60 and the “effect on blood pressure, heart rate, electrocardiogram, respiratory rate and depth” value [10] was “did not significantly affect”. The “embryotoxicity or teratogenic action” value [11] was “No embryotoxicity or teratogenic action”, the “Body Weight Loss (%)” value [12] was 0.4 ± 0.8 % and the “Score of Withdrawal Symptoms” value [12] was 2.6 ± 4.6. For the same compound, the “toxic reaction on dose escalation” value [12] was “significant toxic reaction (vomiting)”, the “Percentage change in body weight, Overall Mean X ± SD” value [13] was 3.2 and the “withdrawal symptom score (Mean ± SD)” value [13] was 0.0. The “Jumping Frequency (X ± SD)” value [14] was 0.70 ± 2.70 and 1.30 ± 3.90, the “Jumping Incidence (%)” value ([14]; sc) was 10.0*# % and the “Sleeping time (X ± SD)” value ([15]; ip) was 35.1 ± 26.2 ||| min and 36.3 ± 16.7 ||| min and 26.6 ± 22.5 ||| min. The IC50 [16] was about 100 µM, the “duration of analgesic effect” value ([17]; mouse, in vivo, sc) was “about 5 hours” and the “onset of therapeutic effect” value ([17]; mouse, in vivo, sc) was 15 min. The “time to peak effect after dosing” value ([17]; mouse, in vivo, sc) was 1 h, the “analgesic effect, times stronger than morphine” value [18] was 2900 times and the “analgesic effect, times stronger than morphine” value ([18]; sc) was 3200 times. The in vitro haemolyzation [19] was “did not induce in vitro haemolyzation” and the chromosomal aberration rates [20] was 0˜2%.
In the case of `CN1CC[C@]23c4c5ccc(O)c4O[C@H]2[C@@H](O)C=C[C@H]3[C@H]1C5` [Morphine, morphine], the “Score of body weight loss (Mean ± SD)” value [9] is reported as 10.00 ± 2.60, the “Score of withdrawal symptoms (Mean ± SD)” value [9] is reported as 7.38 ± 1.16 and the “Score of Withdrawal Symptoms” value ([12]; Guangxi) is reported as 61.0 ± 2.6. The “Body Weight Loss (%)” value [12] was 6.6 ± 1.7%, the “Percentage change in body weight, Overall Mean X ± SD” value [13] was −6.1 and the “Jumping Frequency (X ± SD)” value [14] was 19.7 ± 16.3. The “Jumping Incidence (%)” value [14] was 90.0%, the Latency time [21] was over 20 min and the “ID50 (95% CI)” value [18] was 2.74 mg/kg. For the same compound, the “ID50 (95% CI)” value ([18]; sc) was 2.63 (2.32 ˜ 2.98) mg/kg.
For `CN(C)c1ccc(N=NS(=O)(=O)[O-])cc1.[Na+]` [Dexon], the “Number of revertant Salmonella colonies, TA98” value [22] was 604 ± 86, the “Number of revertant Salmonella colonies, TA100” value [23] was 562 ± 50 and the “Number of revertant Salmonella colonies, TA102” value (from here on “Number … TA102”) ([24]; Dexon 50.0, −S9, control 270 ± 45) was 858 ± 79. For the same compound, the “Number of revertant Salmonella colonies, TA97” value [25] was 1567 ± 315.
In the case of `O=P1(N(CCCl)CCCl)NCCCO1` (stereo not shown) [cyclophosphamide], the “Number of Micronucleus cells” value [5] is reported as 279 and the teratogenic rate ([11]; female, Shanghai) is reported as 100%.
With `CCOC(=O)C1(c2ccccc2)CCN(C)CC1` [Meperidine] the “ID50 and 95% Confidence Interval” value ([3]; mouse, in vivo, sc) was 1.8 mg/kg.
For `Cn1c(=O)c2c(ncn2C)n(C)c1=O` [Caffeine], the “Number of autonomic mobility (X ± SD)” value [26] was 777 ± 178 •••.
With `CO[C@@]12[C@H](COC(N)=O)C3=C(C(=O)C(C)=C(N)C3=O)N1C[C@@H]1N[C@@H]12` [MMC] the “Chromosomal aberration rate (%)” value ([20]; 24 hours) was 72% and the “Chromosomal aberration rate (%)” value ([20]; 48 hours) was 99%.
For `CN1C(=O)CN=C(c2ccccc2)c2cc(Cl)ccc21` [Diazepam], the “Number of positively effected animals” value [27] was 8 ***, the “Number of autonomic mobility (X ± SD)” value [26] was 323 ± 203 ||| and the “Sleeping time (X ± SD)” value ([15]; Kunming) was 146.2 ± 53. ||| min.
With “10% bovine serum albumin: 10% bovine serum albumin solution, positive control in hypersensitivity test” the “animals with hypersensitive reaction (+)” value ([7]; (+) scratching nose, pilo-erection, uneasiness, sneezing, shortness of breath, mild cyanosis, animals/8) was 4/8, the “animals with hypersensitive reaction (++)” value ([7]; (++) pilo-erection, manifest dyspnea, cyanosis, weakness of limbs, animals/8) was 3/8 and the “animals with hypersensitive reaction (+++)” value ([7]; (+++) Death, animals/8) was 1/8. For the same compound, the “animals with hypersensitive reaction (−)” value ([7]; guinea pig, in vivo) was 0/8.
For `O=C1c2cccc(O)c2C(=O)c2c(O)cccc21` [DAN], the “Number … TA102” value ([24]; DAN 100.0, +S9) was 906 ± 69 and the “Number … TA102” value ([24]; DAN 100.0, −S9) was 379 ± 99.
With `CC(=O)Oc1ccccc1C(=O)O` [Aspirin] the “Percentage of inhibition (%)” value ([3]; Aspirin 100 mg/kg, Table 4 (sc)) was 18.9%, the “Average Writhing Incidents” value [3, 29] was 22.1 and the “Inhibition Rate %” value [3, 29] was 21.7%. For the same compound, the “Percentage of inhibition (%)” value ([3]; Aspirin 200 mg/kg, Table 4 (sc)) was 46.2%, the “Average Writhing Incidents” value [3, 30] was 14.3 and the “Inhibition Rate %” value [3, 30] was 49.3%. The “Percentage of inhibition (%)” value ([3]; Aspirin 300 mg/kg, Table 4 (sc)) was 69.4%, the “Average Writhing Incidents” value [3, 31] was 7.2 and the “Inhibition Rate %” value [3, 31] was 74.4%. The “Percentage of inhibition (%)” value ([3]; Aspirin 400 mg/kg, Table 4 (sc)) was 85.4%, the “Average Writhing Incidents” value [3, 32] was 2.7 and the “Inhibition Rate %” value [3, 32] was 90.6%. The “ID50 and 95% Confidence Interval” value ([3]; Aspirin, Table 4 (sc)) was 198.8 mg/kg, the “ID50 (95% Confidence Interval)” value ([3]; Aspirin, Table 5 (im)) was 183.8 mg/kg and the “duration of analgesic effect” value ([17]; aspirin 400 mg/kg po) was “about 2 hours”. The “onset of therapeutic effect” value ([17]; aspirin 400 mg/kg po) was 20 min, the “time to peak effect after dosing” value ([17]; aspirin 400 mg/kg po) was 0.5 h and the “IR, inhibition rate” value ([17]; Table 10, 10 min) was 38.4. For the same compound, the “IR, inhibition rate” value ([17]; Table 10, 20 min) was 41.1, the “AWI, average writhing incidence” value ([17]; Table 10, 30 min) was 1.98 and the “IR, inhibition rate” value ([17]; Table 10, 30 min) was 89.2. For the same compound, the “AWI, average writhing incidence” value ([17]; Table 10, 40 min) was 4.8, the “IR, inhibition rate” value ([17]; Table 10, 40 min) was 74.1 and the “AWI, average writhing incidence” value ([17]; Table 10, 70 min) was 6.3. For the same compound, the “IR, inhibition rate” value ([17]; Table 10, 70 min) was 65.9, the “IR, inhibition rate” value ([17]; Table 10, 100 min) was 37.1 and the “IR, inhibition rate” value ([17]; Table 10, 130 min) was 36.2. For the same compound, the “AWI, average writhing incidence” value ([17]; Table 12 (NS 28.2 ± 14.3), 10 min after dosing) was 19.5, the “IR, inhibition rate” value ([17]; Table 12, 10 min) was 30.8 and the “AWI, average writhing incidence” value ([17]; Table 12, 20 min) was 17.7. For the same compound, the “IR, inhibition rate” value ([17]; Table 12, 20 min) was 37.2, the “AWI, average writhing incidence” value ([17]; Table 12, 30 min) was 5.5 and the “IR, inhibition rate” value ([17]; Table 12, 30 min) was 80.6. For the same compound, the “AWI, average writhing incidence” value ([17]; Table 12, 45 min) was 8.2, the “IR, inhibition rate” value ([17]; Table 12, 45 min) was 70.9 and the “AWI, average writhing incidence” value ([17]; Table 12, 60 min) was 10.2. For the same compound, the “IR, inhibition rate” value ([17]; Table 12, 60 min) was 63.8, the “AWI, average writhing incidence” value ([17]; Table 12, 90 min) was 14.4 and the “IR, inhibition rate” value ([17]; Table 12, 90 min) was 49.0. The “AWI, average writhing incidence” value ([17]; Table 12, 120 min) was 19.3, the “IR, inhibition rate” value ([17]; Table 12, 120 min) was 31.6 and the “AWI, average writhing incidence” value ([17]; Table 12, 150 min) was 22.8. For the same compound, the “IR, inhibition rate” value ([17]; Table 12, 150 min) was 19.3.
In the case of `CC1(C)S[C@@H]2[C@H](NC(=O)Cc3ccccc3)C(=O)N2[C@H]1C(=O)[O-].[K+]` [Penicillin G-K, penicillin G-K], the “Grade for stimulation reaction, Left side, rabbit 1” value [28, 33] is reported as 4, the “Grade for stimulation reaction, Right side, rabbit 1” value [28, 33] is reported as 4 and the “Grade for stimulation reaction, Right side, rabbit 2” value [28, 33] is reported as 4. For the same compound, the “Grade for stimulation reaction, Left side, rabbit 2” value ([28]; rabbit, in vivo) was 4 and the Sum of grades ([28]; two rabbits, both sides) was 16.
